This is an account of results in patent US10682442B2, “Small molecule drug release from in situ forming degradable scaffolds incorporating hydrogels and bioceramic microparticles” (University of Kentucky Research Foundation, priority 2014, dated 2020).

In brackets after ≈: the same amount, converted by molar mass.

Data set [1] can be described thus: Drug loading into PBAE microparticles (loading efficiency, surface vs bulk drug). In kind it is physicochemical. Particulars: pre-loaded; 100 mg/mL drug solution. The protocol: FIG. 6A graphically represents the processing method for creating PBAE microparticles, as well as the differences between pre- and post-loaded particles. […] This ratio allowed particles to swell without excess solution remaining, and expected drug loads were calculated under the assumption that all drug solution was imbibed by the microparticles. Particles were lyophilized overnight, briefly re-ground and sieved to break up aggregates, and stored in a vacuum chamber with desiccant. […] Drug-loaded PBAE slabs were ground with 75 wt % HA into particles and stored in a vacuum chamber with desiccant. Predicted values for drug loading using the pre-loading method were obtained by calculating swelling of PBAE in solution based on mass increase and assuming drug was homogeneously present in swollen hydrogels as well as surrounding solution. […] The mixtures containing ethanol and swollen PBAE microparticles were then centrifuged, and supernatants were analyzed using HPLC to detect simvastatin, as described below. Clodronate loading was measured with an identical technique using 50% ethanol, and was detected by absorbance as described below. […] Drug detected in the initial wash was deemed loosely bound to the surface of particles, while drug detected after the 24 hour soak was determined to be imbibed into the bulk of the particles.

Data set [2] in a line: In vitro drug release from in situ forming PLGA scaffolds in PBS (Example 1). In kind it is physicochemical. As to conditions: for burst release within one day: freely mixed. The protocol: PLGA was added to NMP and stirred overnight until fully dissolved to create a 20 wt/wt % PLGA solution. […] HA was also mixed homogeneously prior to injection to bring the final mixture to 30 wt % HA. Clodronate-loaded PBAE microparticles pre-loaded with 50 mg/mL clodronate were added using an identical technique. […] FIG. 6B illustrates the differences between the proposed system and a traditional injectable system. Simvastatin and clodronate were measured as described below.
The scaffold mixture was injected dropwise through a 16 gauge, blunt-tipped dispensing needle into PBS at 5% wt/vol. Upon contacting PBS, surface PLGA immediately began to precipitate, forming semi-spherical scaffolds approximately 3 mm in diameter that sank to the bottom of the vial. Samples were kept in an incubator at 37° C. on a plate shaker for the duration of the study. Supernatant was collected and replaced at each time point, and these samples were preserved at 4° C. until analysis. Clodronate release was measured for three loading conditions: freely mixed clodronate without HA filler, freely mixed clodronate with HA filler, and clodronate pre-loaded into PBAE microparticles with HA filler. Because PBAE microparticles were fabricated with HA as a dispersing agent, drug release from loaded particles was not investigated without HA filler. Simvastatin release was measured for three loading conditions: freely mixed simvastatin without HA filler, freely mixed simvastatin with HA filler, and simvastatin pre-loaded into PBAE microparticles with HA filler.
Clodronate from collected supernatants were measured using a Powerwave HT (Biotek; Winooski, Vt., USA). In vitro release supernatant was pipetted into a UV-grade 96-well plate (Greiner Bio-One, Frickenhausen, Germany), and baseline absorbance was measured at 240 nm.
Drug release from polymeric systems is often analyzed using an adaptation of the Higuchi model by Peppas et al., widely known as the power law, to characterize release kinetics (Siepmann J, Peppas N A. Modeling of drug release from delivery systems based on hydroxypropyl methylcellulose (HPMC). Advanced Drug Delivery Reviews 2001; 48:139-57):
[formula] represents Tractional release or drug at time t, k is a constant encompassing scaffold and drug properties, and it is the release exponent used to characterize drug release. In the case of the spherical geometry (consistent with scaffolds formed via dropwise injection), n=0.43 corresponds to pure Fickian diffusion, n=0.85 corresponds to pure case II (polymer relaxation-based) transport, and values in between are combinations of the two, termed anomalous transport (Siepmann J, Peppas N A. Modeling of drug release from delivery systems based on hydroxypropyl methylcellulose (HPMC). Advanced Drug Delivery Reviews 2001; 48:139-57). Plots of
[formula] so release data were truncated to below 60% cumulative release when calculating n. Mass Loss and Degradation

Data set [3] is described as follows: physchem.

In data set [1], `O=P(O)(O)C(Cl)(Cl)P(=O)(O)O` [clodronate] showed a loading efficiency of 59%. Moreover, the release rate in data set [2] (all loading conditions, day 20 through day 31) amounted to 3 %/day; in data set [2] (freely mixed without HA, through day 19), 0.6 %/day; in data set [2] (mixed with HA, through day 19), 1.3 %/day; in data set [2] (pre-loaded into microparticles, through day 19), 1.3 %/day. Further, the “burst release within one day” value came out at 32% in data set [2] (with HA filler) and 49% in data set [2] (without HA). For the same compound, in data set [2] (pre-loaded drug, initial release during burst (first day)), the “release exponent n (power law)” value was determined as 0.49. For the same compound, the “1 day burst release” value in data set [2] (pre-loaded into PBAE microparticles, with HA filler) is recorded as 32%. Moreover, the solubility (in general, the concentration that dissolves in the medium under given conditions) in data set [3] (aqueous with cosolvent or surfactant or cyclodextrin) is 20 mg/mL (≈ 81.7 mM); in data set [3] (water) it was no less than 100 mg/mL.
